From patent US20030171368A1, “Pyrimidinonesulfamoylureas`” (priority 2002, published 2003)
≈ marks a conversion by molar mass, not a printed value.

Molecular target: T1, integrin αvβ3 (Homo sapiens, UniProt P05106+P06756)
T1 construct: from tissue; host or cells: human placenta
Test: Integrin αvβ3 assay: competition between vitronectin and test substance for binding to solid phase-bound integrin αvβ3
Settings: competition with human vitronectin; result in words only
Experimental: For the identification and assessment of integrin αvβ3 ligands, a test system was used which is based on competition between the natural integrin αvβ3 ligand vitronectin and the test substance for binding to solid phase-bound integrin αvβ3. […]
coat microtiter plates with 250 ng/ml of integrin αvβ3 in 0.05 M NaHCO3 pH 9.2; 0.1 ml/well; overnight/4° C. saturate with 1% milk powder/assay buffer; 0.3 ml/well; 0.5 h/RT wash 3× with 0.05% Tween 20/assay buffer test substance in 0.1% milk powder/assay buffer, 50 μl/well +0 μg/ml or 2 μg/ml of human vitronectin (Boehringer Ingelheim T007) in 0.1% milk powder/assay buffer, 50 μl/well; 1 h/RT […]
1 μg/ml of anti-human vitronectin antibody coupled to peroxidase (Kordia SAVN-APHRP) in 0.1% milk powder/assay buffer; 0.1 ml/well; 1 h/RT […]
0.1 ml/well of peroxidase substrate stop reaction with 0.1 ml/well of 2 M H2SO4 measurement of the absorption at 450 nm
Integrin αvβ3: Human placenta is solubilized with Nonidet and integrin αvβ3 is affinity-purified on a GRGDSPK matrix (elution mit EDTA). Impurities due to integrin […] and human serum albumin, and the detergent and EDTA are removed by anion exchange chromatography. […]

Q: With `Cc1cn(C[C@H](NS(=O)(=O)N(C)C)C(=O)O)c(=O)nc1N1CCC(CNc2ccccn2)CC1` [Example 9, (2S)-2-{[(Dimethylamino)sulfonyl]amino}-3-(5-methyl-2-oxo-4-{4-[(2-pyridinylamino)-methyl]-1-piperidinyl}-1 (2H)-pyrimidinyl)propionic acid] as the compound, how does the “IC50 values (concentration of the ligand at which 50% of the ligand is displaced)” value read?
A: best results

Q: Which “IC50 values (concentration of the ligand at which 50% of the ligand is displaced)” value does the source give for `Cc1cn(C[C@H](NS(=O)(=O)N(C)C)C(=O)O)c(=O)nc1N1CCC(CNc2nc3ccccc3[nH]2)CC1.Cl.Cl` [Example 2, (2S)-3-(4-{4-[(1H-Benzimidazol-2-ylamino)methyl]-1-piperidinyl}-5-methyl-2-oxo-1 (2H)-pyrimidinyl)-2-{[(dimethylamino)sulfonyl]amino}propionic acid (dihydrochloride)] here?
A: best results

System: not listed separately
Test: Solubility in water (10 mg in 1 ml H2O, shaken, centrifuged, HPLC against DMSO solution)
Type: physicochemical
Settings: 10 mg substance in 1 ml H2O, shaken 10 minutes, supernatant measured by HPLC
Experimental: The compounds of the general formula I according to the invention are distinguished in comparison to the substances described in WO 00/61551 by more advantageous physicochemical properties, in particular an improved solubility in water.
10 mg of the substance to be investigated were dissolved in 1 ml of DMSO, vigorously shaken for 10 minutes and then centrifuged for 10 minutes at 10000 rpm and diluted with a mixture of 5% CH3CN/H2O+0.1% TFA 1:10.
10 mg of substance were mixed with 1 ml of H2O, vigorously shaken for 10 minutes and centrifuged for 10 minutes at 10000 rpm. The supernatant was removed and likewise diluted. Both solutions were measured by HPLC (column: MACHEREY & NAGEL, Nucleosil C18 PPN, 100×2.1 mm ID, 5μ, temp: 40° C.) and the concentration of the aq. solution was determined.

Q: For `CCOC(=O)N[C@@H](Cn1cc(C)c(N2CCC(CNc3nc4ccccc4[nH]3)CC2)nc1=O)C(=O)O.Cl` [(2S)-3-(4-{4-[(1H-Benzimidazol-2-ylamino)methyl]-1-piperidlnyl}-5-methyl-2-oxo-1(2H)-pyrimidinyl)-2-[(ethoxycarbonyl)amino]propanoic acid (hydrochloride)], which “Solubility (H2O)” value is on record?
A: 560 µg/mL

Same assay, conditions: water, thermodynamic from solid, 10 mg substance in 1 ml H2O, shaken 10 minutes, supernatant measured by HPLC

Q: With `Cc1cn(C[C@H](NC(=O)N(C)C)C(=O)O)c(=O)nc1N1CCC(CNc2nc3ccccc3[nH]2)CC1.Cl` [(2S)-3-(4-{4-[(1H-Benzimidazol-2-ylamino)methyl]-1-piperidinyl}-5-methyl-2-oxo-1(2H)-pyrimidinyl)-2-{[(dimethylamino)carbonyl]amino}propanoic acid (hydrochloride)] as the compound, how does the solubility at 10 min read?
A: 810 µg/mL

Q: Which solubility at 10 min does the source give for `Cc1cn(C[C@H](NS(=O)(=O)N(C)C)C(=O)O)c(=O)nc1N1CCC(CNc2nc3ccccc3[nH]2)CC1.Cl.Cl` [Example 2, (2S)-3-(4-{4-[(1H-Benzimidazol-2-ylamino)methyl]-1-piperidinyl}-5-methyl-2-oxo-1 (2H)-pyrimidinyl)-2-{[(dimethylamino)sulfonyl]amino}propionic acid (dihydrochloride)] here?
A: 2500 µg/mL

Q: Which solubility at 10 min does the source give for `CCNC(=O)N[C@@H](Cn1cc(C)c(N2CCC(CNc3nc4ccccc4[nH]3)CC2)nc1=O)C(=O)O` [(2S)-3-(4-{4-[(1H-Benzimidazol-2-ylamino)methyl]-1-piperidinyl}-5-methyl-2-oxo-1(2H)-pyrimidinyl)-2-{[(ethylamino)carbonyl]amino}propanoic acid] here?
A: 860 µg/mL (≈ 1730 µM)

Q: For `CC(=O)O.Cc1cn(C[C@H](NS(=O)(=O)c2ccccc2)C(=O)O)c(=O)nc1N1CCC(CNc2nc3ccccc3[nH]2)CC1` [(2S)-3-(4-{4-[(1H-Benzimidazol-2-ylamino)methyl]-1-piperidinyl}-5-methyl-2-oxo-1(2H)-pyrimidinyl)-2-[(phenylsulfonyl)amino]propanoic acid (acetate)], which solubility at 10 min is on record?
A: < 50 µg/mL

Q: For `CC(=O)N[C@@H](Cn1cc(C)c(N2CCC(CNc3nc4ccccc4[nH]3)CC2)nc1=O)C(=O)O.Cl` [(2S)-2-(Acetylamino)-3-(4-{4-[(1H-benzimidazol-2-ylamino)methyl]-1-piperidinyl}-5-methyl-2-oxo-1(2H)-pyrimidinyl)propanoic acid (hydrochloride)], which solubility at 10 min is on record?
A: 1000 µg/mL

Q: Which solubility at 10 min does the source give for `Cc1cn(C[C@H](NS(C)(=O)=O)C(=O)O)c(=O)nc1N1CCC(CNc2nc3ccccc3[nH]2)CC1.Cl` [(2S)-3-(4-{4-[(1H-Benzimidazol-2-ylamino)methyl]-1-piperidinyl}-5-methyl-2-oxo-1(2H)-pyrimidinyl)-2-[(methylsulfonyl)amino]propanoic acid (hydrochloride)] here?
A: < 50 µg/mL
